Here are results for two compounds from patent US20240140947A1, “COMPOUND FOR THE TREATMENT OF CANCER” (priority 2022, published 2024).

The fraction unbound is free concentration divided by total concentration. Low values mean extensive binding, high ones weak binding.

The subject of one data set is A549. The experiment in a line: Cell proliferation assay (CYQUANT, 7 days), A549. The data set is classed as cell-based. To be noted: Homo sapiens, read-out: IC50 ± SEM, proliferation inhibition. As to the method: (§1) Cellular CDK activity of Compound 1 and PF-06873600 were assessed in human CCNE1-amplified ovarian cancer cell line model OVCAR3 and human ER+ breast cancer cell line model MCF7 cells. […] OVCAR3 cells were treated overnight with 1 mM hydroxyurea to enrich for G1/S phase cells prior to treatment with inhibitors. Functional effects were measured in a 7-day anti-proliferation assay in one human ovarian cancer (OVCAR3), two human ER+ breast cancer (MCF7 and T47D) and three human non-small cell lung cancer (NCIH2087, NCIH358 and A549) cell line models.
(§2) OVCAR3, MCF7, T47D, HCC1428, NCIH2087, NCIH358 or A549cells were seeded 1-3000 cells/well in 96-well plates in growth media containing 10% FBS and cultured overnight at 37° C. 5% CO2. The following day, compounds were serially diluted from a 10 mM top dose for an 11-point 3-fold dilution curve in DMSO. […] CYQUANT Direct Cell Proliferation Assay (Molecular Probes, Eugene, OR) was then performed following manufacturer recommendations to determine the relative viable cell numbers on the Perkin Elmer Envision 2104 Multi Label Reader at 508 nm excitation and 527 nm emission wavelengths. IC50 values were calculated by concentration-response curve fitting utilizing a four-parameter analytical method using GraphPad Prism software.

Data set [1] is described as follows: Prediction of human clearance, volume of distribution and elimination half-life. To be noted: for Mean Vdss unbound: (mean animal Vdss unbound values): Wistar-Hannover (rat), rat and/or dog, iv; for CLb: predicted total clearance: scaled from CLint HHEP and fub, Q=20 ml/min/kg. As to the method: To determine and compare the predicted human elimination half-lives, compounds 1-4 were evaluated for their human blood-to-plasma partition ratio (BPR) along with other key in vitro ADME data including metabolic stability in human hepatocytes (CL, nt HHEP).
The predicted total clearance in human (CLb) was first determined based on the in vitro human metabolism data shown below using the equation:
CLb=(Q·fub·CLintHHEP)/[(Q+fub)·CLintHHEP]
(Scaling Clint HHEP from μl/min/M to ml/min/kg based on hepatocellularity (120×10^6/ g liver), g of liver per Kg bodyweight (21g/Kg), assuming hepatocyte binding is negligible and liver blood flow Q=20 ml/min/kg.)
The projected human volume of distribution at steady state in human blood (Vdss_human) was then calculated based on the animal (rat and/or dog) PK data. The Vdss_human was calculated factoring in differences in blood binding across compounds. Due to the high blood-to-plasma partition ratio in Compounds 1 and 4, the corresponding Vdss_human was limited to the blood volume with Vdss_human estimated to be 0.07 L/Kg.
Using the estimates of CLb and Vdss_human, the predicted human elimination half-lives of compounds 1-4 were calculated according to the equation:
Half-life=0.693·Vdss_human/CLb

Data set [2] in a line: Human hepatocyte stability. In kind it is in vitro ADME. To be noted: hepatocytes, 0.5 million cells/mL, 37° C., 4 hours, read-out: CLint HHEP: CLint in human hepatocytes (in vitro).
Protocol: At various time points, samples were taken and analyzed by LC-MS/MS. CLint HHEP was calculated based on loss of parent compound over time using equations discussed in “A novel relay method for determining low-clearance values,” Drug Metab Dispos., 2012; 40(9):1860-5.
A further data set has as its system NCIH2087. The experiment in a line: Cell proliferation assay (CYQUANT, 7 days), NCIH2087. The data set is classed as cell-based. To be noted: Homo sapiens, NCI-H2087, 168 h, read-out: IC50 ± SEM, proliferation inhibition. As to the method:
as §1, §2

Another data set concerns HCC1428 parental. Kind of data set: Cell proliferation assay (CYQUANT, 7 days), HCC1428 parental. The data set is classed as cell-based. To be noted: Homo sapiens, read-out: IC50 ± SEM, proliferation inhibition. As for the experimental part:
OVCAR3, MCF7, T47D, HCC1428, NCIH2087, NCIH358 or A549cells were seeded 1-3000 cells/well in 96-well plates in growth media containing 10% FBS and cultured overnight at 37° C. 5% CO2. The following day, compounds were serially diluted from a 10 mM top dose for an 11-point 3-fold dilution curve in DMSO. Compound 1 and PF-06873600 were intermediately diluted 1:200 into growth media prior to diluting 1:5 on cells for final concentration 10 μM to 0.1 nM in 0.1% DMSO on cells. Cells were incubated at 37° C. 5% CO2 for 7 days. CYQUANT Direct Cell Proliferation Assay (Molecular Probes, Eugene, OR) was then performed following manufacturer recommendations to determine the relative viable cell numbers on the Perkin Elmer Envision 2104 Multi Label Reader at 508 nm excitation and 527 nm emission wavelengths. IC50 values were calculated by concentration-response curve fitting utilizing a four-parameter analytical method using GraphPad Prism software.
The effect of Compound 1 on cell proliferation was assessed in multiple ER+ breast cancer cell lines, including parental and palbociclib resistant cell lines.

Data set [3] concerns phosphorylation of Rb protein at serines 807/811 in MCF7 cells. The experiment in a line: Phospho-Serine 807/811 Rb ELISA in MCF7 cells. Particulars: Homo sapiens, read-out: IC50 ± SEM, modulation of pRB Serine 807/811. The data set is classed as cell-based. As to the method:
as §1
(§3) OVCAR3 or MCF7 cells were seeded at 25,000 cells/well in 100 μL growth media and allowed to adhere at 37° C. with 5% CO2 overnight. OVCAR3 cells were treated overnight with 1 mM hydroxyurea to enrich for G1/S phase cells prior to treatment with inhibitors. The following day, compounds were serially diluted from a 10 mM top dose for an 11-point 3-fold dilution curve in DMSO. Compound 1 and PF-06873600 were intermediately diluted 1:200 into growth media prior to diluting 1:5 on cells for final concentration 10 μM to 0.1 nM in 0.1% DMSO on cells. […] Plates were read in luminescence mode and IC50 values calculated.
(§4) The cellular activity of Compound 1 was evaluated in ER+, HER2− MCF7 cells and CCNE1-amplified ovarian carcinoma. Activity was determined by inhibition of phosphorylation of […]
Background: In an ELISA, binding on a coated surface is turned into a signal by an enzyme label.

Another data set deals with OVCAR3. Kind of data set: Cell proliferation assay (CYQUANT, 7 days), OVCAR3. Particulars: Homo sapiens, OVCAR-3, 168 h, read-out: IC50 ± SEM, proliferation inhibition. In kind it is cell-based. As for the experimental part: as §1, §2
The next data set has as its system NCIH358. The experiment in a line: Cell proliferation assay (CYQUANT, 7 days), NCIH358. In kind it is cell-based. Particulars: Homo sapiens, NCI-H358, 168 h, read-out: IC50 ± SEM, proliferation inhibition. As for the experimental part: as §1, §2
For data set [4], the system named is phosphorylation of Rb protein at serines 807/811 in OVCAR3 cells. Kind of data set: Phospho-Serine 807/811 Rb ELISA in OVCAR3 cells. In kind it is cell-based. To be noted: Homo sapiens, read-out: IC50 ± SEM, modulation of pRB Serine 807/811. As for the experimental part:
as §1, §3, §4

Data set [5] can be described thus: Human blood binding (fub = fup/BPR). The data set is classed as in vitro ADME. Particulars: fup divided by BPR. As for the experimental part:
Compound 1 has been evaluated according to methods well known in the art, for its ability to partition between human plasma and blood. Based on the observed partitioning and plasma protein binding, the blood binding was estimated based on human blood unbound fraction (fub)=human plasma unbound fraction (fup)/human blood-to-plasma partition ratio (BPR). Human blood unbound fraction (fub) was calculated by dividing fup by BPR.

Like-named read-outs stand apart in the source and are kept apart here.

`C[C@@]1(O)CCC[C@H]1n1c(=O)c(CC(F)F)cc2cnc(NC3CCN(S(N)(=O)=O)CC3)nc21` [Compound 1, 4-({6-(2,2-difluoroethyl)-8-[(1R,2R)-2-hydroxy-2-methylcyclopentyl]-7-oxo-7,8-dihydropyrido[2,3-d]pyrimidin-2-yl}amino)piperidine-1-sulfonamide]: the IC50 with A549 (168 h, A549, 7 days, mean) was 121 ± 10.1 nM; in the data set on NCIH2087 (NCIH2087, 7 days, mean) it was 40 ± 6.8 nM; in the data set on HCC1428 parental (168 h, HCC1428 parental, 7 days, mean) it was 14.3 ± 4.4 nM; in data set [3] (MCF7, mean, treated 24 h (overnight)), 148 nM; with OVCAR3 (OVCAR3, 7 days, mean), 11.4 nM; in the data set on NCIH358 (NCIH358, 7 days, mean), 21 ± 2.2 nM. In addition, the IC50 in [4] (OVCAR-3, OVCAR3, mean, treated 1 h after overnight 1 mM hydroxyurea) turned out to be 16.2 nM. In data set [1], the “Mean Vdss unbound: (mean animal Vdss unbound values)” value was 8.8 L/kg. Further, the “(adjusted) predicted t1/2 based on PF-06873600's observed t1/2” value in data set [1] (human) was 34 h. Moreover, in data set [1] (human), the “Vdss—human limited to the blood volume (lower limit)” value was 0.07 L/kg. Besides, the “Vdss—human: projected volume of distribution (steady state)” value in data set [1] (human) was 0.019 L/kg L/Kg. Moreover, in [1] (human), the “CLb: predicted total clearance” value was 0.011 mL/min/kg. Besides, in data set [2], the hepatocyte CLint at 1 μM was roughly 2 µL/min/1e6 cells. The compound also had a fraction unbound in data set [5] of 0.0022.

In the case of `C[C@@]1(O)CCC[C@H]1n1c(=O)c(C(F)F)cc2cnc(NC3CCN(S(C)(=O)=O)CC3)nc21` [Compound 2, reference compound], the IC50 in the data set on A549 (A549, 168 h) came to 189 nM; with NCIH2087, 79.8 nM; in the data set with HCC1428 parental (HCC1428, 168 h) it was 96.7 ± 26.4 nM; in data set [3] (MCF7, 24 h) it was 70.6 nM; with OVCAR3, 70 ± 11.7 nM; in the data set on NCIH358, 39 nM. Also, the IC50 in data set [4] (OVCAR-3, 1 h) stood at 21.8 nM. Moreover, the “Mean Vdss unbound: (mean animal Vdss unbound values)” value in data set [1] was 2.8 L/kg. For the same compound, the “Vdss—human: projected volume of distribution (steady state)” value in data set [1] (human) was 0.9 L/kg. Further, the “CLb: predicted total clearance” value in [1] (human) was 1.5 mL/min/kg. Moreover, the hepatocyte CLint at 1 μM in data set [2] is roughly 2 µL/min/1e6 cells. In [5], this compound registered a fraction unbound of 0.32.
